Assay results taken from PMC8145641 (Cells, 2021).
≈ marks a conversion by molar mass, not a printed value.

Columns and labels:
[1] = system: tachyzoites of the RH-GFP strain; experiment: Influence of compounds during Toxoplasma growth, Assay A (invasion); format: cell-based, Toxoplasma gondii; conditions: compound at IC50 present 3 h during infection, washed, 24 h free medium; vs non-treated
Experimental: (§1) Influence of Compounds during Toxoplasma Growth (Assay A and B): Hs27 cells were cultured on Lab-Tek™ 4-well Chamber Slides (Nunc, Thermo Fisher Scientific, Waltham, MA, USA) (5 × 10^4 cells/500 μL per well).
Assay A—after 48 h, the medium was removed and then 5 × 10^5/500 µL/well tachyzoites of the RH-GFP strain were added to the cell monolayers, in parasite culture medium with the selected compounds at IC50 concentration: 2b, 5b, 8b, 11b or 12b, for 3 h. Then, the cells were washed to remove extracellular parasites and parasite culture medium (without any compounds) was added for 24 h.
(§2) In both assays as the controls, Hs27 cells were infected, but not treated. After subsequent 24 h of incubation (Assay A and B), the slides were washed with sterile PBS, fixed with formaldehyde solution (252549, Sigma-Aldrich), 3.7% in PBS for 20 min and stained with DAPI for 10 min (1 mg/mL, ThermoFisher Scientific). Microscopic analysis of 100 cells in turn, comprised of counting the infected cell ratio and tachyzoites per each parasitophorous vacuoles of infected cell, was performed using a fluorescent microscope (Axio Scope.A1, Carl Zeiss, Jena, Germany) at a magnification ×1000. For image processing ZEISS ZEN Microscope Software version 3.1 was used. Three independent experiments on triplicate chamber slides using the same conditions for both assays were performed.

[2] = system: Hs27 (human foreskin fibroblast); experiment: Cytotoxicity assay (MTT); format: cell-based; conditions: 24 h treatment
T. gondii RH-GFP = experiment: microbe, parasite or virus in culture; format: cell-based, Toxoplasma gondii; conditions: for IC50: Toxoplasma gondii, HS27, 96 h, read-out: IC50 (50% inhibition of T. gondii proliferation); for SI (selectivity index, CC30/IC50): ratio of CC30 (Hs27) to IC50 (T. gondii), 1b–12b and positive controls
Experimental: Cell and parasite culture: The Hs27 (human foreskin fibroblast) (ATCC® CRL-1634™) (ATCC, Manassas, VA, USA) were culturing in DMEM (Dulbecco’s modified Eagle’s medium-ATCC® 30-2002™, ATCC) supplemented with 10% fetal bovine serum (fetal bovine serum, ATCC® 30-2020™, ATCC), 100 I.U./mL penicillin and 100 μg/mL streptomycin (penicillin-streptomycin solution ATCC® 30-2300™, ATCC). Cells were trypsinized (Trypsin-EDTA Solution ATCC® 30-2101™, ATCC) twice a week and seeded at a density of 1 × 10^6 per T25 cell culture flask and incubated in a 37 °C and 5% CO2 to achieve a confluent monolayer. The RH strain of Toxoplasma gondii (RH-GFP ATCC® 50940™, ATCC, highly virulent, haplogroup first, expression of green fluorescent protein) was maintained as tachyzoites, in parasite culture medium, which contains DMEM medium with 3% HIFBS (heat-inactivated FBS; 1 h in 56 °C). Infected tissue culture cells were incubated in a 37 °C and 5% CO2.
After 72 h of incubation, the medium was removed and then 1 × 10^5 per well of tachyzoites of the RH strain were added to the cell monolayers, in DMEM without phenol red with 3% HIFBS. One hour later, the compounds and drugs dilutions in the DMEM without phenol red medium were added to the Hs27 cells with T. gondii. Concentration of the compounds below cytotoxic concentration (<CC30), sulfadiazine 0–10,000 μM and trimethoprim, pyrimethamine and atovaquone 0–200 μM. After a subsequent 96 h of incubation, the plates were read with covered lids, and both excitation (475 nm) and emission (509 nm) from the bottom using multimode microplate reader SpectraMax® i3. The results were expressed as mean fluorescent intensity (MFI) and transformed to the percentage of viability compared to untreated cells. Finally, the inhibitory concentrations for 50% inhibition of T. gondii proliferation (IC50) were calculated. All experiments were performed in triplicate.
Graphs and statistical analyses: Statistical analyses and graphs were performed using GraphPad Prism version 9.0.0 for macOS (GraphPad Software, San Diego, CA, USA). […] Additionally, a relationship between cytotoxicity and antiparasitic activity were calculated as the ratio of the 30% cytotoxic concentration (CC30) to the 50% antiparasitic concentration (IC50) and presented as the selectivity index (SI).

[3] = system: tachyzoites of the RH-GFP strain; experiment: Influence of compounds during Toxoplasma growth, Assay B (intracellular proliferation); format: cell-based, Toxoplasma gondii; conditions: 3 h infection without compound, washed, 24 h with compound at IC50
Experimental: as §1
Assay B—after 48 h, the medium was removed and then 5 × 10^5/500 µL/well tachyzoites of the RH-GFP strain were added to the cell monolayers, in parasite culture medium for 3 h.
as §2

T. gondii = conditions: values from the earlier paper; ref [25]; cited from earlier work

Row | Compound | number of tachyzoites per vacuole (Assay A) [1] | percentage of infected cells (Assay A) [1] | CC30 (cytotoxic concentration causing 30% of cells proliferation inhibition) [2] [µg/mL] | IC50 (T. gondii RH-GFP) [µg/mL] | SI (selectivity index, CC30/IC50) (T. gondii RH-GFP) | number of intravacuolar tachyzoites (Assay B) [3] | percentage of infected cells (Assay B) [3] | size of parasitophorous vacuole (Assay B) [3] | IC50 (50% inhibition of T. gondii proliferation) (T. gondii) [µg/mL]
1 | Cc1nc[nH]c1-c1nnc(Nc2cccc(F)c2)s1 [2b] | significant reductions | significant reductions | 18.96 | 7.04 (≈ 25.6 µM) | 2.69 | significant reduction | still the same | significant reduction | –
2 | Cc1nc[nH]c1C(=O)NNC(=S)Nc1cccc(I)c1 [11a] | – | – | 85.57 | – | – | – | – | – | 10.30
3 | Cc1nc[nH]c1C(=O)NNC(=S)Nc1cccc(F)c1 [2a] | – | – | 125.17 | – | – | – | – | – | 113.45
4 | Cc1nc[nH]c1-c1nnc(Nc2ccc(Br)cc2)s1 [9b] | – | – | 21.52 | 5.41 (≈ 16.1 µM) | 3.98 | – | – | – | –
5 | Cc1nc[nH]c1C(=O)NNC(=S)Nc1ccccc1I [10a] | – | – | 101.58 | – | – | – | – | – | 20.31
6 | Cc1nc[nH]c1-c1nnc(Nc2ccccc2F)s1 [1b] | – | – | 157.71 | 26.2 (≈ 95.1 µM) | – | – | – | – | –
7 | Cc1nc[nH]c1-c1nnc(Nc2ccccc2Br)s1 [7b] | – | – | 29.71 | 8.77 (≈ 26.1 µM) | 3.39 | – | – | – | –
8 | Cc1nc[nH]c1-c1nnc(Nc2cccc(I)c2)s1 [11b] | significant reductions | significant reductions | 36.48 | 4.49 (≈ 11.7 µM) | 8.13 | significant reduction | still the same | significant reduction | –
9 | Cc1nc[nH]c1C(=O)NNC(=S)Nc1ccc(F)cc1 [3a] | – | – | 266.20 | – | – | – | – | – | 110.31
10 | Cc1nc[nH]c1C(=O)NNC(=S)Nc1ccccc1Cl [4a] | – | – | 143.15 | – | – | – | – | – | 35.61
11 | Cc1nc[nH]c1C(=O)NNC(=S)Nc1cccc(Cl)c1 [5a] | – | – | 96.78 | – | – | – | – | – | 24.15
12 | Cc1nc[nH]c1-c1nnc(Nc2ccc(Cl)cc2)s1 [6b] | – | – | 45.97 | 8.36 (≈ 28.7 µM) | 5.50 | – | – | – | –
13 | Cc1nc[nH]c1-c1nnc(Nc2cccc(Br)c2)s1 [8b] | significant reductions | significant reductions | 20.55 | 3.83 (≈ 11.4 µM) | 5.37 | significant reduction | still the same | significant reduction | –
14 | Cc1nc[nH]c1C(=O)NNC(=S)Nc1ccc(I)cc1 [12a] | – | – | 71.58 | – | – | – | – | – | 22.01
15 | Cc1nc[nH]c1-c1nnc(Nc2cccc(Cl)c2)s1 [5b] | significant reductions | significant reductions | 17.88 | 3.65 (≈ 12.5 µM) | 4.90 | significant reduction | still the same | significant reduction | –
16 | Cc1nc[nH]c1-c1nnc(Nc2ccccc2I)s1 [10b] | – | – | 89.54 | 11 (≈ 28.8 µM) | 8.13 | – | – | – | –
17 | Cc1nc[nH]c1C(=O)NNC(=S)Nc1ccc(Cl)cc1 [6a] | – | – | 94.12 | – | – | – | – | – | 73.37
18 | Cc1nc[nH]c1C(=O)NNC(=S)Nc1ccc(Br)cc1 [9a] | – | – | 48.89 | – | – | – | – | – | 14.57
19 | Cc1nc[nH]c1-c1nnc(Nc2ccc(F)cc2)s1 [3b] | – | – | 26.17 | 11.4 (≈ 41.5 µM) | 2.29 | – | – | – | –
20 | Cc1nc[nH]c1-c1nnc(Nc2ccccc2Cl)s1 [4b] | – | – | 24.69 | 12.4 (≈ 42.4 µM) | 2.00 | – | – | – | –
21 | Cc1nc[nH]c1C(=O)NNC(=S)Nc1ccccc1F [1a] | – | – | 289.60 | – | – | – | – | – | 68.83
22 | Cc1nc[nH]c1C(=O)NNC(=S)Nc1cccc(Br)c1 [8a] | – | – | 96.12 | – | – | – | – | – | 15.64
23 | Cc1nc[nH]c1C(=O)NNC(=S)Nc1ccccc1Br [7a] | – | – | 205.31 | – | – | – | – | – | 27.65
